Laboratory results from patent US20250388593A1 (MITSUBISHI TANABE PHARMA CORPORATION, priority 2023, published 2025).
pKd: −log10 of the molar value.

biological target: CRBN truncate (318-426) (Homo sapiens (Human), UniProt Q96SW2); assay: Measurement of molecular interactions using surface plasmon resonance (SPR), Biacore T200; type: binding; details: 25° C., immobilized CRBN truncate, upper limit of measurement 200 μM
Summary of the method: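 C-terminally Avi-tagged CRBN (318-426) captured on a streptavidin SA chip on a Biacore T200. Running buffer 10 mM HEPES pH 7.5, 150 mM NaCl, 1 mM TCEP, 0.005% Tween 20, 2% DMSO; 60 s contact, 120 s dissociation.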

CRBN truncate (318-426), sequence (Q96SW2 318-426): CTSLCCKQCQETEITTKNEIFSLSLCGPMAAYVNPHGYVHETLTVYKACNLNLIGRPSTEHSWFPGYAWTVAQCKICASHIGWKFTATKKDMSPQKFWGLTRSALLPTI

Compound | pKd
CC(C)(C)OC(=O)c1ccc(C2(F)CCCC(=O)NC2=O)cc1 (centres unmarked) [Example 243, tert-Butyl 4-(3-fluoro-2,7-dioxoazepan-3-yl) benzoate] | ≤ 4.00
CC(=O)Nc1cccc(C2(F)CCCC(=O)NC2=O)c1 (centres unmarked) [Example 245, N-[3-(3-Fluoro-2,7-dioxoazepan-3-yl)phenyl]acetamide] | ≤ 4.00
O=C1CCCC(n2nc(-c3ccccc3)ccc2=O)C(=O)N1 (centres unmarked) [Example 246, 3-(6-Oxo-3-phenylpyridazin-1-yl) azepane-2,7-dione] | 4.00 to 4.30
O=C1CCCC(n2ncc(-c3ccccc3)cc2=O)C(=O)N1 (centres unmarked) [Example 247, 3-(6-oxo-4-phenylpyridazin-1-yl)azepane-2,7-dione] | ≤ 4.00
O=C1CCCC(n2ncc(Cl)cc2=O)C(=O)N1 (centres unmarked) [Example 248, 3-(4-Chloro-6-oxopyridazin-1-yl)azepane-2,7-dione] | ≤ 4.00
O=C1CCCC(n2nnc3ccccc32)C(=O)N1 (centres unmarked) [Example 250, 3-(Benzotriazol-1-yl)azepine 2,7-dione] | ≤ 4.00
COc1ccc2nn(C3CCCC(=O)NC3=O)nc2c1 (centres unmarked) [Example 251, 3-(5-Methoxybenzotriazol-2-yl)azepane-2,7-dione] | ≤ 4.00
O=C1CCCC(n2nc(Cl)ccc2=O)C(=O)N1 (centres unmarked) [Example 252, 3-(3-Chloro-6-oxopyridazin-1-yl)azepane-2,7-dione] | ≤ 4.00
COc1ccc2c(c1)nnn2C1CCCC(=O)NC1=O (centres unmarked) [Example 253, 3-(5-Methoxybenzotriazol-1-yl)azepane-2,7-dione] | ≤ 4.00
COc1ccc2nnn(C3CCCC(=O)NC3=O)c2c1 (centres unmarked) [Example 254, 3-(6-Methoxybenzotriazol-1-yl)azepane-2,7-dione] | ≤ 4.00
COc1cccc2c1nnn2C1CCCC(=O)NC1=O (centres unmarked) [Example 255, 3-(4-Methoxybenzotriazol-1-yl)azepane-2,7-dione] | ≤ 4.00
COc1cccc2nn(C3CCCC(=O)NC3=O)nc12 (centres unmarked) [Example 256, 3-(4-Methoxybenzotriazol-2-yl)azepane-2,7-dione] | ≤ 4.00
O=C1CCCC(n2c(=O)ccc3cc(Br)ccc32)C(=O)N1 (centres unmarked) [Example 257, 3-(6-Bromo-2-oxoquinolin-1-yl)azepane-2,7-dione] | ≤ 4.00
COc1cccc2c1ccc(=O)n2C1CCCC(=O)NC1=O (centres unmarked) [Example 258, 3-(5-Methoxy-2-oxoquinolin-1-yl)azepane-2,7-dione] | ≤ 4.00
Cn1c(=O)c(=O)n(C2CCCC(=O)NC2=O)c2ccccc21 (centres unmarked) [Example 259, 1-(2,7-Dioxoazepan-3-yl)-4-methylquinoxaline-2,3-dione] | ≤ 4.00
CC(C)(C)OC(=O)CCc1ccc2c(c1)oc(=O)n2C1CCCC(=O)NC1=O (centres unmarked) [Example 260, tert-Butyl 3-[3-(2,7-dioxoazepan-3-yl)-2-oxo-1,3-benzoxazol-6-yl]propanoate] | 4.00 to 4.30
Cn1c(=O)n(C2CCCC(=O)NC2=O)c(=O)c2ccc(Br)cc21 (centres unmarked) [Example 261, 7-Bromo-3-(2,7-dioxoazepan-3-yl)-1-methylquinazoline-2,4-dione] | 4.00 to 4.30
CC(C)(C)OC(=O)CCc1ccc2c(c1)sc(=O)n2C1CCCC(=O)NC1=O (centres unmarked) [Example 262, tert-Butyl 3-[3-(2,7-dioxoazepan-3-yl)-2-oxo-1,3-benzothiazol-6-yl]propanoate] | 4.00 to 4.30
Cn1c(=O)n(C2CCCC(=O)NC2=O)c(=O)c2ccc(CCC(=O)OC(C)(C)C)cc21 (centres unmarked) [Example 265, tert-Butyl 3-[3-(2,7-dioxoazepan-3-yl)-1-methyl-2,4-dioxoquinazolin-7-yl]propanoate] | ≤ 4.00
Cn1c(-c2ccc(CCC(=O)OC(C)(C)C)cc2)nn(C2CCCC(=O)NC2=O)c1=O (centres unmarked) [Example 266, tert-Butyl 3-[4-[1-(2,7-dioxoazepan-3-yl)-4-methyl-5-oxo-1,2,4-triazol-3-yl]phenyl]propanoate] | ≤ 4.00
O=C1CCCC(Oc2ccc(Br)cc2)C(=O)N1 (centres unmarked) [Example 267, 3-(4-Bromophenoxy) azepane-2,7-dione] | ≤ 4.00
CC(C)(C)OC(=O)c1ccc(OC2CCCC(=O)NC2=O)nc1 (centres unmarked) [Example 268, tert-Butyl 6-(2,7-dioxoazepan-3-yl) oxypyridine-3-carboxylate] | ≤ 4.00

Compound | pKd
O=C1CCCC2(CCN(C(=O)C3CCN(c4ncccn4)CC3)C2)C(=O)N1 (centres unmarked) [Example 269, 2-(1-Pyrimidin-2-ylpiperidine-4-carbonyl)-2,7-diazaspiro [4.6]undecane-6,8-dione] | ≤ 4.00
CN(C1CCCC(=O)NC1=O)S(=O)(=O)c1ccc(CCCCCCNC(=O)OC(C)(C)C)cc1 (centres unmarked) [Example 271, tert-Butyl N-[6-[4-[(2,7-dioxoazepan-3-yl)-methylsulfamoyl]phenyl]hexyl]carbamate] | ≤ 4.00
CN1CCN(c2cnn(C3CCCC(=O)NC3=O)c(=O)c2)CC1 (centres unmarked) [Example 272, 3-[4-(4-Methylpiperazin-1-yl)-6-oxopyridazin-1-yl]azepane-2,7-dione] | ≤ 4.00
CCOC(=O)c1ccc2nc(N3CC4(CC(=O)N(C5CCCC(=O)NC5=O)C4=O)C3)sc2c1 (centres unmarked) [Example 273-2, Ethyl 2-[6-(2,7-dioxoazepan-3-yl)-5,7-dioxo-2,6-diazaspiro [3.4]octan-2-yl]-1,3-benzothiazole-6-carboxylate] | ≤ 4.00
O=C1CCCC(N2C(=O)OCc3cc([N+](=O)[O-])ccc32)C(=O)N1 (centres unmarked) [Example 274, 3-(6-Nitro-2-oxo-4H-3,1-benzoxazin-1-yl) azepane-2,7-dione] | ≤ 4.00
CC(C)(C)OC(=O)Cn1c(=O)c(=O)n(C2CCCC(=O)NC2=O)c2ccccc21 (centres unmarked) [Example 275, tert-Butyl 2-[4-(2,7-dioxoazepan-3-yl)-2,3-dioxoquinoxalin-1-yl]acetate] | ≤ 4.00
CC(C)(C)OC(=O)N1CCC(c2ccc(OC3CCCC(=O)NC3=O)cc2)CC1 (centres unmarked) [Example 276] | ≤ 4.00
O=C1CCC(N2C(=O)CC3(CN(C4CCN(CC(=O)OCc5ccccc5)CC4)C3)C2=O)C(=O)N1 (centres unmarked) [Example 277, Benzyl 2-[4-[6-(2,6-dioxopiperidin-3-yl)-5,7-dioxo-2,6-diazaspiro [3.4]octan-2-yl]piperidin-1-yl]acetate] | > 4.30
CC(C)(C)OC(=O)NCCc1ccc(S(=O)(=O)N2CC3(CC(=O)N(C4CCC(=O)NC4=O)C3=O)C2)cc1 (centres unmarked) [Example 278, tert-Butyl N-[2-[4-[[6-(2,6-dioxopiperidin-3-yl)-5,7-dioxo-2,6-diazaspiro [3.4]octan-2-yl]sulfonyl]phenyl]ethyl]carbamate] | ≤ 4.00
Cn1nc(N2CC=CC(=O)NC2=O)c2ccc(Br)cc21 [Example 281, 3-(6-Bromo-1-methylindazol-3-yl)-4H-1,3-diazepine-2,7-dione] | ≤ 4.00
CC1(N2CC=CC(=O)NC2=O)C(=O)N(CC(=O)OCc2ccccc2)c2ccccc21 (centres unmarked) [Example 283, Benzyl 2-[3-(2,7-dioxo-4H-1,3-diazepin-3-yl)-3-methyl-2-oxoindol-1-yl]acetate] | 4.00 to 4.30
Cn1nc(N2C=CCC(=O)NC2=O)c2ccc(/C=C/C(=O)OC(C)(C)C)cc21 [Example 287, tert-Butyl (E)-3-[3-(2,4-dioxo-5H-1,3-diazepin-1-yl)-1-methylindazol-6-yl]prop-2-enoate] | > 4.30
CN1C(=O)C(C)(N2C=CCC(=O)NC2=O)c2ccc(/C=C/C(=O)OC(C)(C)C)cc21 (centres unmarked) [Example 288, tert-Butyl (E)-3-[3-(2,4-dioxo-5H-1,3-diazepin-1-yl)-1,3-dimethyl-2-oxoindolin-6-yl]prop-2-enoate] | > 4.30
CN1C(=O)C(C)(N2C=CCC(=O)NC2=O)c2cccc(/C=C/C(=O)OC(C)(C)C)c21 (centres unmarked) [Example 289, tert-Butyl (E)-3-[3-(2,4-dioxo-5H-1,3-diazepin-1-yl)-1,3-dimethyl-2-oxoindolin-7-yl]prop-2-enoate] | > 4.30
Cn1nc(N2CCCC(=O)NC2=O)c2ccc(CCC(=O)OC(C)(C)C)cc21 [Example 291, tert-Butyl 3-[3-(2,4-dioxo-1,3-diazepan-1-yl)-1-methylindazol-6-yl]propanoate] | 4.00 to 4.30
CC1(N2CCCC(=O)NC2=O)C(=O)N(CC(=O)O)c2ccccc21 (centres unmarked) [Example 292, 2-[3-(2,4-dioxo-1,3-diazepan-1-yl)-3-methyl-2-oxoindol-1-yl]acetic acid] | ≤ 4.00
Cc1ccc(NC(=O)Nc2ccc3nc(N4CCC5(CCCC(=O)NC5=O)C4)sc3c2)cc1Cl (centres unmarked) [Example 296, 1-(3-Chloro-4-methylphenyl)-3-[2-(6,8-dioxo-2,7-diazaspiro [4.6]undecan-2-yl)-1,3-benzothiazol-6-yl]urea] | ≤ 4.00
Nc1ccc(N2CCC(N3CCCC(=O)NC3=O)C2=O)cc1 (centres unmarked) [Example 297, 1-[1-(4-Aminophenyl)-2-oxopyrrolidin-3-yl]-1,3-diazepane-2,4-dione] | ≤ 4.00
CC(C)(C)OC(=O)CCCCCNc1ccc(C(=O)N2CCC3(CCCC(=O)NC3=O)C2)cc1 (centres unmarked) [Example 300, tert-Butyl 6-[4-(6,8-dioxo-2,7-diazaspiro[4.6]undecane-2-carbonyl)anilino]hexanoate] | > 4.30
CC(C)(C)OC(=O)NCCCCCCCNc1ccc2nc(N3CCCC(=O)NC3=O)sc2c1 [Example 303, tert-Butyl N-[7-[[2-(2,4-dioxo-1,3-diazepan-1-yl)-1,3-benzothiazol-6-yl]amino]heptyl]carbamate] | ≤ 4.00
CC(C)(C)[Si](C)(C)OC1c2cccc(Br)c2CC1N1CC=CC(=O)NC1=O (centres unmarked) [Example 307] | ≤ 4.00
Cc1sc2c(c1C)C(c1ccc(Cl)cc1)=N[C@@H](CC(=O)NCCCCCCc1cccc(C(=O)N3CCC4(CCCC(=O)NC4=O)C3)c1)c1nnc(C)n1-2 (stereo partly drawn) [Example 308, 2-[(9S)-7-(4-chlorophenyl)-4,5,13-trimethyl-3-thia-1,8,11,12-tetraazatricyclo[8.3.0.02,6]trideca-2(6),4,7,10,12-pentaen-9-yl]-N-[6-[3-(6,8-dioxo-2,7-diazaspiro[4.6]undecane-2-carbonyl)phenyl]hexyl]acetamide] | ≤ 4.00
